# From a melting point compilation (Tetko et al.; mined from patent text by program, amines drawn as free bases though some values may be those of a salt)
row,melting point,Structure (SMILES)
1,266 to 268 °C,CC1(C)N=C(O)N=C(NC(=O)c2nc(Cl)c(N)nc2N)N1
2,204 to 206 °C,CSc1cc(C)nc(SC)c1NC(=O)CC=CC1=C(c2ccccc2)c2ccccc2OC1
3,123 to 125 °C,CCOC(=O)c1ccc(OC(=O)c2cccc(C(=O)Oc3ccc(C(=O)OCC)cc3)c2)cc1
4,203 to 205 °C,Cc1nc2cccc(S(=O)(=O)n3c(COC(C)C(=O)O)cc4nc(Cl)ccc43)c2s1 (stereo not given)
5,186 to 188 °C,CS(=O)(=O)N1CCC(NC(=O)Nc2ccc(F)cc2)CC1
6,293 to 294 °C,Cc1c(C(=O)c2sc(Nc3ccc(S(N)(=O)=O)cc3)nc2N)ncn1C
7,111 to 113 °C,O=C(c1ccccc1)c1c(Cl)cc(CBr)cc1Cl
8,47 to 48 °C,CCOC(=O)c1c([N+](=O)[O-])c(C)nn1C
9,188 to 189 °C,COCCCNC(=O)c1cc2c(nc(C)n2C)c2c1CCC1(Cc3ccccc3C1)N2
10,125 to 126 °C,Cc1ccc(NC(=O)C(=O)N2CCC(Cc3ccc(F)cc3)CC2)cc1
11,136 to 138 °C,O=C(NCc1cccc([N+](=O)[O-])c1)c1ccccc1
12,186 to 188 °C,N#Cc1cc(S(=O)(=O)c2ccc(N)cc2)cc(Br)n1
13,150 to 160 °C,CCCCCC(c1nccn1CC(=O)O)n1cnc2cc(-c3ccccc3-c3nn[nH]n3)ccc21 (stereo not given)
14,239 to 241 °C,CCCCc1nc2c(N)nc3ccccc3c2n1CCCNS(C)(=O)=O
15,95 to 97 °C,O=S(=O)(NCCCCCCNc1nsc2nccn12)c1cccc2ccccc12
16,189 to 191 °C,O=C(C=Cc1ccc(NS(=O)(=O)c2ccccc2)cc1)NO
17,75 to 90 °C,Cc1noc(NS(=O)(=O)c2c(C(=O)c3ccc4c(c3)OCO4)sc3ncccc23)c1Cl
18,192 °C,CN1CCCCC1C(NC(=O)Nc1ccc2[nH]ncc2c1)c1cc(F)cc(Cl)c1 (stereo not given)
19,95 to 96 °C,CCCOc1c(OCc2ccccc2)cc(C2CCC(=O)O2)cc1S(=O)(=O)CCC (stereo not given)
20,133 to 134 °C,O=C(O)CCC(=O)c1ccc(OCCCCN2C(=O)c3ccccc3C2=O)cc1
21,146 to 148 °C,COc1ccc(C2C(=O)OC3=CC(O)(OC(C)=O)C=CC3=C2C)c(OC)c1 (stereo not given)
22,160 to 163 °C,CCOC(=O)c1cc2ccccc2[nH]c1=O
23,199 to 202 °C,Cn1cnc(COc2nn3c(-c4ccccc4)nnc3cc2-c2ccccc2)c1
24,189 to 192 °C,COC(=O)CCC1(NC(=O)c2cc3c4ccccc4n(C(C)=O)c3cn2)C(=O)N(c2ccccc2)c2ccccc21 (stereo not given)

row,melting point,Structure (SMILES)
1,112 °C,COc1cc(C=CC(=O)c2ccc(OC)c(OC)c2OC)cc(OC)c1
2,115 to 117 °C,O=S(=O)(Nc1cccc(OCc2cccc(-c3ccccc3)n2)c1)C(F)(F)F
3,113 to 114 °C,COc1ccc(-c2cc(OC3SCC(OC(C)=O)C(OC(C)=O)C3OC(C)=O)ccn2)cc1 (stereo not given)
4,> 300 °C,CSc1cc2c(cn1)c(=O)n(C)c1cc(C)nn21
5,> 230 °C,Nc1nc2ccc3ccc(CNc4ccc([N+](=O)[O-])cc4)cc3c2c(=O)[nH]1
6,192 to 194 °C,CCCNC(=O)C(C)Cc1ccc2ccn(Cc3ccc(C(=O)NS(=O)(=O)c4ccccc4C)cc3OC)c2c1 (stereo not given)
7,168 to 169 °C,COc1ccc(NN=C2CCC3(CC2)OCCO3)cc1
8,148 to 150 °C,CCCc1nc2c(N)nc3ccccc3c2n1CCC(OCC)OCC
9,101 °C,CC(NC(=S)NCc1ccc(C(C)(C)C)cc1)c1ccc(NS(C)(=O)=O)cc1 (stereo not given)
10,206 to 208 °C,COc1ccnc(CCc2nc3cc(-c4ccc(O)cc4)cnc3[nH]2)c1
11,179 to 181 °C,Cc1cccc(S(=O)(=O)Nc2cc(C)c(S(=O)(=O)C[N+](=O)[O-])c(C)c2)c1
12,207 to 208 °C,CC(C)(C)c1ccc(CSc2nc3cnccc3[nH]2)cc1
13,214 to 217 °C,Cc1cnc(NS(C)(=O)=O)cc1C(c1cc(F)ccc1F)S(=O)(=O)c1ccc(Cl)cc1 (stereo not given)
14,111 to 112 °C,COc1cc(C2(O)CCN(C(=O)OC(C)(C)C)CC2)ccc1Nc1ncc2ccc(-c3ccccc3N(C)S(C)(=O)=O)n2n1
15,199 to 202 °C,CN1CCN(Cc2ccc(-c3cccc(-c4ccnc5c(C(=O)c6cccs6)cnn45)c3)cc2)CC1
16,260 to 263 °C,Cc1ccc2c(c1)C=Cc1cc(C)ccc1C2c1cn(-c2ccnc(NCC(=O)O)n2)c(=O)[nH]c1=O
17,128 °C,CCN(CC)CCCN1C(=S)c2cccc3cccc1c23
18,116 to 117 °C,CC(C(=O)Nc1cccc2c1C(=O)c1c(NC(=O)C(C)N(C)C)cccc1C2=O)N(C)C (stereo not given)
19,50 to 52 °C,Cc1cc(F)ccc1C(=O)c1ccc(F)cc1C
20,166 to 168 °C,Cc1c(NC(=O)c2ccc(-c3ccc(F)cc3)cc2)ccc2cc(CN3CCCCCC3)cnc12
21,174 to 177 °C,Cc1ccc(S(=O)(=O)N2CCNC2=Nc2ccccc2)cc1
22,169 to 170 °C,NC(=O)c1cc(-c2cccc3cc(Cc4cccc(C(F)(F)F)c4)sc23)ccc1F
23,74 to 75 °C,CCCN(C(C)C)S(=O)(=O)NC(=O)c1cc(-n2c(=O)cc(C(F)(F)F)n(C)c2=S)c(F)cc1Cl
24,240 to 242 °C,Cn1cc2c(n1)-c1sccc1N(C(=O)c1ccc(NC(=O)C3CCCCC3)cc1)CC2

# More lines, now with the values behind:
row,Structure (SMILES),melting point
1,CC(C)ON=Cc1cc(-n2c(=O)cc(C(F)(F)F)[nH]c2=O)ccc1Cl,191 to 193 °C
2,OCC1OC(n2cnc3c(NC4CC=CCC4c4cccs4)ncnc32)C(O)C1O (stereo not given),105 to 110 °C
3,CCN1CCC2(CC1)OC(c1ccccc1)c1ccccc12 (stereo not given),113 to 115 °C
4,CCCCCCCNC(=O)Nc1ccc(N(C)C)cc1C(=O)NCC1CCN(C(c2ccc(OC)cc2)c2ccc(OC)cc2)CC1,163 °C
5,O=Cc1cccc(NC(=O)NC2N=C(c3ccccc3F)c3ccccc3N(CC(=O)N3CC4CCC(CC4)C3)C2=O)c1 (racemic),164 to 182 °C
6,Clc1ccc(-c2nccs2)cc1,169 to 170 °C
7,CS(=O)(=O)c1cc(C(F)(F)F)ccc1C(=O)CC(=O)C1CC1,123 to 125 °C
8,CC(=O)c1cnc2onc(C)c2c1Cl,63 °C
9,C#CCSC1NN=C(c2ccncc2)N1c1ccccc1 (stereo not given),151 to 152 °C
10,CC(=O)OCC1OC(n2cc(C(Br)=CBr)c(=O)[nH]c2=O)CC1OC(C)=O (stereo not given),79 to 81 °C
11,c1ccc(-c2ccc(OC3CN(C(c4ccccc4)c4ccccc4)C3)cc2)cc1,141 to 142 °C
12,N#Cc1ccc(OCCCCCOc2cccc(-c3cc4ccc(C#N)cc4o3)c2)cc1,138 to 140 °C
13,CC(C)(C)c1cc(C(=O)c2cc3c(cc2O)CCC3)cc(C(C)(C)C)c1O,155 to 156 °C
14,O=C1C2=C(CCCC2)C(=O)N1c1ccc(O)cc1F,132 to 136 °C
15,CC1(C)C=C(NC=NC#N)c2cc(C#N)ccc2O1,159 to 161 °C
16,COc1cc2nc(N3CCN(C(=O)C=Cc4cc(OC)c(OC)c(OC)c4)CC3)nc(N)c2cc1OC,141 to 146 °C
17,CCC(Br)=C1NC(=O)N(C(C(=O)Nc2cc(NC(=O)C(CC)Oc3ccc(C(C)(C)CC)cc3C(C)(C)CC)ccc2Cl)C(=O)C(C)(C)C)C1=O (stereo not given),129 to 131 °C
18,O=C(Nc1cc(-c2ccnc3c(C(=O)c4cccs4)cnn23)ccc1F)OCCCl,194 to 196 °C
19,COC(=O)C1=C(C)Nc2nccn2C1C1CCCCC1 (stereo not given),178 °C
20,CSc1nc(-c2ccc(C#N)cc2)cn1-c1ccc(Br)cc1,188 to 190 °C
21,CNC(C)c1ccc(C2CCC(N(C)C(=O)c3ccc(Cl)cc3)CC2)cc1 (stereo not given),153 to 155 °C
22,CCOC(=O)N(C)N(C)C(=S)Nc1cc(Cl)cc(Cl)c1,147 to 149 °C
23,CCC(CC)c1ccc(C(F)(F)F)c2nc(Oc3c(C)cc(Cl)cc3Cl)n(C)c12,149 to 151 °C
24,CC1(C)CCC(C)(C)c2cc(OCc3ccc(CN)cc3)ccc21,77 to 79 °C

row,Structure (SMILES),melting point
1,CCOC(=O)C(NC(C)=O)(C(=O)OCC)[C@@H]1CC(=O)C[C@H]1N=[N+]=[N-] (relative stereo),121 to 122 °C
2,CC1Cc2ccc(Br)cc2C(c2ccc([N+](=O)[O-])cc2)=NN1C(=O)C(F)(F)F (stereo not given),193 to 196 °C
3,Nc1cc(C(F)(F)F)cnc1Cl,94 to 95 °C
4,CCCCCc1nc(N(C)C)nc(C)c1O,61 to 62 °C
5,CCN(C)c1cc(C)nc(Oc2c(C)cc(C)cc2C)c1C,173 to 174 °C
6,Oc1c(Br)cc(Br)c2c(Cl)ncnc12,198 to 199 °C
7,CCCCOc1c(C(=O)O)n(CC2CC2)c(=O)c2ccc(OCc3ccccc3)cc12,178 to 179 °C
8,C1=NNC(c2ccccc2)c2ccccc21 (stereo not given),79 °C
9,CCOC(=O)C=Cc1ccc(OC)cc1OC,58 °C
10,O=C(CCCl)N(c1ccccc1)C1CCCc2ccccc21 (stereo not given),78 to 81 °C
11,COc1c(C(O)CNC(C)(C)Cc2c(C)c(C)cc(C)c2C)ccc(O)c1O (stereo not given),165 to 168 °C
12,COc1cc(OC)c2c(=O)cc(-c3cccc(C)c3)oc2c1C1=CCN(C)CC1,109 to 110 °C
13,COc1cc2c(c(C(C)C)c1OC)C(=O)N(CCl)S2(=O)=O,117 to 119 °C
14,COC(=O)CC=CCC(=O)NCCc1ccccc1,69 to 70 °C
15,N#Cc1cc(Cl)cc(Cl)c1Cl,77 to 78 °C
16,C[C@]12Cc3ccccc3[C@H]1Nc1ccccc12 (relative stereo),72 °C
17,CC(SN1C(=O)CCC1=O)c1ccccc1 (stereo not given),121 to 125 °C
18,O=[N+]([O-])c1oc2ccc(CN3CCN(c4ccccc4)CC3)cc2c1-c1ccccc1,155 to 157 °C
19,O=CN1CCN(c2cc3c(cc2F)c(=O)c(C(=O)O)c2sccn23)CC1,335 to 336 °C
20,COc1cc2ncc(N3C(=O)C4CCC3CC4)nc2cc1OC,158 to 159 °C
21,O=[N+]([O-])c1ccc(CSCc2c[nH]cn2)cc1,88 °C
22,O=c1[nH]c2c(I)c(Br)c(Br)c(I)c2[nH]c1=O,> 350 °C
23,O=C1C2=C(CCCC2)C(SSC2C3=C(CCCC3)C(=O)N2c2ccc(Cl)cc2F)N1c1ccc(Cl)cc1F (stereo not given),146 to 147 °C
